Measurements reported in article PMC8767159, “Multiparameter Optimization of Trypanocidal Cruzain Inhibitors With In Vivo Activity and Favorable Pharmacokinetics” (Frontiers in Pharmacology, 2022).
Like-named read-outs stand apart in the source and are kept apart here.

Assays:
[1] = In vivo pharmacokinetics in male CD1 mice; parameters: species or system mouse; details: for CLpu: plasma clearance corrected for the fraction unbound; for clearance: plasma clearance, read-out: CLp (L/h/kg) IV (converted); for C0 / AUC / half-life / Vd / Cmax / Tmax / bioavailability: plasma; for bioavailability: oral bioavailability
Method: The in vivo pharmacokinetic profiles of the compounds were determined using male CD1 mice weighing […] ([Davies and Morris, 1993]; [Liu and Jia, 2007]). The compounds were administered in a single dose orally (0.5 mg/kg) and intravenously (0.5 mg/kg). Stock solutions of the compounds in DMSO were diluted in Tween 80, PEG-400, and D5W (5% dextrose in water) at a ratio of 2:5:20:73 (v/v). The injection volume was 10 ml/kg. The remaining plasma concentration was monitored over time by LC-MS/MS by collecting blood samples (40 μl) at 10, 25, and 50 min and 1, 3, 6, 9, 12, and 24 h after administration of the compound.
For the biotransformation experiments and analysis of metabolites in microsomes, an Ultra-High-Pressure Liquid Chromatography instrument (UHPLC, Thermo Accela, Waltham, MA) ([Spaggiari et al., 2014]) connected to an automatic sample injector and a 1250 series pump was used. The UHPLC system was connected to a Thermo Fisher (Waltham, MA) LTQ Orbitrap mass spectrometer. For all other analyses, an AB Sciex Triple Quad 5500 coupled to a UHPLC equipped with a UV 1290 diode detector (Agilent Technologies, Santa Clara, CA) and a CTC PAL self-collecting system (LEAP Technologies, Carrboro, NC) was used. Q1 MS positive ion mode (300–500 Da) was used to detect the ions of the parent compounds. The UV detector was operated in spectral mode (250–280 nm). A Hypersil Gold C18 (2.1 mm × 100 mm, 1.9 µm, Thermo Fisher) HPLC column was used. The mobile phases were solvent A (0.1% formic acid in water) and solvent B (0.1% formic acid in ACN). The flow was adjusted to 0.55 ml/min, and the injection volume was adjusted to […]. The gradient started with 1% solvent B for 0.4 min, reached 40% (solvent B) in 2.3 min and 95% (solvent B) in 0.67 min, was maintained for 0.5 min, and returned to the initial condition of 1%. This condition was maintained for 1 min before injection of the next sample. The peak area ratio (peak area of the test compounds/peak area of the control compounds) was converted to the percentage of remaining compound, with the 0 min time point ratio set to 100%. T½ and CLint were calculated from the percentage of remaining compound versus the incubation time. From the resulting function, the slope (k) was determined. The equations T1/2 (min) = ln(2)/k and CLint in vitro (μL/min/mg) = k*1000/0.25 were used to determine T½ and CLint.

[2] = Parallel artificial membrane permeability assay (PAMPA); format: in vitro ADME; parameters: PAMPA: unit: 1e-6 cm/s
[3] = In vitro metabolic stability in mouse liver microsomes; format: in vitro ADME; details: mouse, liver microsomes
Procedure, shortened: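 Compounds incubated at 37°C with mouse or human liver microsomes (0.25 mg/ml) in potassium phosphate buffer with NADPH; samples quenched in ACN/MeOH at 0, 5, 10, 15, 20 and 30 min. Parent remaining by LC-MS/MS relative to 0 min; T½ = ln(2)/k, CLint = k*1000/0.25 (μL/min/mg).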

[4] = Table 6, PO 0.5 mg/kg, male CD1 mice
[5] = male, CD1, mouse, 0.5 mg/kg, Table S6, IV, mice
[6] = male, CD1, mouse, 0.5 mg/kg, Table S6, IV, mice, read-out: AUC (ng*h/mL) IV
[7] = male, CD1, mouse, 0.5 mg/kg, Table S6, IV, mice, read-out: T1/2(h) IV (converted)
[8] = male, CD1, mouse, 0.5 mg/kg, Table S6, IV, mice, read-out: VSS (L/kg) IV
[9] = male, CD1, mouse, 0.5 mg/kg, Table S6, PO, mice
[10] = PAMPA, Table 3, donor pH 6.5, acceptor pH 7.4, 5 h
[11] = Table 5, CLint/fu, read-out: CLint_u (L/h/kg) mouse (converted)
[12] = Table 5, read-out: CLint (L/h/kg) mouse (converted)
[13] = Table S5, CLint/fu, read-out: CLint_u (L/h/kg) Mouse (converted)
[14] = Table S5, read-out: CLint (L/h/kg) Mouse (converted)
[15] = mouse, Table 6, IV 0.5 mg/kg, male CD1 mice
[16] = mouse, Table 6, IV 0.5 mg/kg, male CD1 mice, read-out: AUC (ng*h/ml) IV
[17] = mouse, Table 6, IV 0.5 mg/kg, male CD1 mice, read-out: T1/2 (h) IV (converted)
[18] = mouse, Table 6, IV 0.5 mg/kg, male CD1 mice, read-out: V SS (L/kg) IV
[19] = mouse, Table 6, PO 0.5 mg/kg, male CD1 mice

Row | Structure (SMILES) | CLpu ([1]; Table 6, IV) [mL/min/kg] | CLpu ([1]; Table S6) [mL/min/kg] | clearance [1, 5] [L/h/kg] | C0 [1, 5] [ng/mL] | AUC [1, 6] [ng·h/mL] | half-life [1, 7] [h] | Vd [1, 8] [L/kg] | Papp at 5 h, 1 µM [2, 10] [×10⁻⁶ cm/s] | Papp at 5 h, 1 µM ([2]; PAMPA, Table 5) [×10⁻⁶ cm/s] | CLint scaled at 5 µM [3, 11] [L/h/kg] | CLint scaled at 5 µM [3, 12] [L/h/kg] | CLint scaled at 5 µM [3, 13] [L/h/kg] | CLint scaled at 5 µM [3, 14] [L/h/kg] | C0 [1, 15] [ng/mL] | AUC [1, 16] [ng·h/mL] | half-life [1, 17] [h] | Vd [1, 18] [L/kg] | clearance [1, 15] [L/h/kg] | further results
1 | O=C(Cn1ccnc1[N+](=O)[O-])NCc1ccccc1 [BZ, benznidazole, reference compound] | 16.7 | 16.7 | 1 | 961 | 1020 | 0.8 | 1.1 | 3.17 | 3.2 | 4.4 | 4.4 | 4.43 | 4.43 | – | – | – | – | – | AUC (ng*h/ml) PO [1, 4]: 1.040 ng·h/mL; T1/2 (h) PO [1, 4]: 1.5 h; Cmax [1, 9]: 404 ng/mL; Tmax [1, 9]: 24 min; AUC ([1]; male, CD1, mouse, 0.5 mg/kg, Table S6, PO, mice, read-out: AUC (ng*h/mL) PO): 1040 ng·h/mL; half-life ([1]; male, CD1, mouse, 0.5 mg/kg, Table S6, PO, mice, read-out: T1/2 (h) PO (converted)): 1.5 h; bioavailability ([1]; male, CD1, mouse, 0.5 mg/kg, Table S6, mice): 90%; PAMPA ([2]; Table S5, unit not given): 3.17
2 | C=CCCn1c(CCNC(=O)COc2ccccc2Cl)nc2ccccc21 [Compound 38] | 7175 | – | – | – | – | – | – | – | 7.7 | 2030 | 934 | – | – | 126 | 82 | 0.4 | 3.3 | 6.2 | Cmax [1, 19]: 2.5 ng/mL; Tmax [1, 19]: 18 min
3 | O=C(COc1ccc2ccc(O)cc2c1)NCCc1nc2ccccc2[nH]1 [Compound 11] | – | 8011 | 12.9 | 400 | 77 | 0.13 | 1.92 | 0.17 | – | – | – | 68.5 | 45.7 | – | – | – | – | – | Papp at 5 h, 1 µM ([2]; Table S5, unit inferred): 0.13 ×10⁻⁶ cm/s
4 | O=C(CCc1ccccc1Br)NCCc1nc2ccccc2[nH]1 [Compound 36] | 3858 | – | – | – | – | – | – | – | 4.7 | 935 | 705 | – | – | 144 | 55 | 0.5 | 7.2 | 9.5 | bioavailability ([1]; mouse, 0.5 mg/kg, Table 6, male CD1 mice): 0%
